Measured values taken from US20080114007A1 (priority 2006, published 2008).

Target: CSF-1R (Homo sapiens, UniProt P07333)
Experiment: Peptide (non-phosphorylated) assay, fluorescence polarization competition immunoassay
Type: biochemical
Conditions: 0.7 nM CSF-1R, 308 μM SYEGNSYTFIDPTQ peptide, 1 mM ATP, 80 min; mean of at least three determinations; read-out: c-fms Peptide IC50
In short: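 Read-out is fluorescence polarization: after EDTA quench, anti-phosphotyrosine antibody plus PTK green tracer compete with the phosphorylated peptide for 30 min. The CSF-1R reaction itself ran 80 min at room temperature after ATP addition. DMSO (4%) wells served as controls, positive controls pre-treated with EDTA.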

CSF-1R, sequence (P07333 20-972): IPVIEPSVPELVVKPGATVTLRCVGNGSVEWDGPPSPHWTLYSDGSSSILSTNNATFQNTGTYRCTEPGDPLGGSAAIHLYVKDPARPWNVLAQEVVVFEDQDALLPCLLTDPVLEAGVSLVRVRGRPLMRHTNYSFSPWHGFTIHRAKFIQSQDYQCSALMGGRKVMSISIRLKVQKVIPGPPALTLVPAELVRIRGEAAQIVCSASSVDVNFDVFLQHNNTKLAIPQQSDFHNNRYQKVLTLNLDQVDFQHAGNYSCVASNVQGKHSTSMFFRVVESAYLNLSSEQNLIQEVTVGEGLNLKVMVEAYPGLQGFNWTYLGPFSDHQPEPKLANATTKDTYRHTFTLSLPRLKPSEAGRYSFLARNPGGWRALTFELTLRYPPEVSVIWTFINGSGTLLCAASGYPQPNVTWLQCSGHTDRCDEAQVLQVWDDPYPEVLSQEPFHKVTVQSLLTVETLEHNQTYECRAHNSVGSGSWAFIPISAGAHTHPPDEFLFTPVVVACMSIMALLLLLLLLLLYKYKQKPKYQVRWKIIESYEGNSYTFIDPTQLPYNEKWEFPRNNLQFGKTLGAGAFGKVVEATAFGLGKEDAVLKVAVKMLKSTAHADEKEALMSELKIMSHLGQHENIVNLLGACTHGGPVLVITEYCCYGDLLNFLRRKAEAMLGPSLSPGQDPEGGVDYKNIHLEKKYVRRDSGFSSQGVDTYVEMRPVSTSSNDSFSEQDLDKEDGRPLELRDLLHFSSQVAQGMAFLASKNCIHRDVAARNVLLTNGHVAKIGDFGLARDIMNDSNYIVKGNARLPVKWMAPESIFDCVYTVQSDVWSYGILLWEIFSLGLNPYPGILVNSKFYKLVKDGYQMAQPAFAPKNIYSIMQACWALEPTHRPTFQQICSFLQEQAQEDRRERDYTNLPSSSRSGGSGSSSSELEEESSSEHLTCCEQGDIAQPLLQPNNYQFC

| IC50 [nM] | Structure (SMILES) |
| --- | --- |
| 0.7 | CONC(=O)c1cn(-c2ccc3c(c2)C=CC3)c2nc(Nc3ccc(C4CCN(C)CC4)cc3)ncc2c1=O [Cpd 259, 8-(1H-inden-5-yl)-2-[4-(1-methyl-piperidin-4-yl)-phenylamino]-5-oxo-5,8-dihydro-pyrido[2,3-d]pyrimidine-6-carboxylic acid methoxy-amide] |
| 4.5 | CN(C)C(=O)c1ccc(Nc2ncc3c(=O)c(C(N)=O)cn(-c4ccc5c(c4)CCC5)c3n2)cc1 [Cpd 123, 2-(4-dimethylcarbamoyl-phenylamino)-8-indan-5-yl-5-oxo-5,8-dihydro-pyrido[2,3-d]pyrimidine-6-carboxylic acid amide] |
| 1.8 | CCc1ccc(-n2cc(C(=O)NOC)c(=O)c3cnc(Nc4ccc(C5CCN(S(N)(=O)=O)CC5)cc4)nc32)cc1 [Cpd 179, 8-(4-ethyl-phenyl)-5-oxo-2-[4-(1-sulfamoyl-piperidin-4-yl)-phenylamino]-5,8-dihydro-pyrido[2,3-d]pyrimidine-6-carboxylic acid methoxy-amide] |
| 1.5 | CONC(=O)c1cn(-c2ccc3c(c2)CCC3)c2nc(Nc3ccccc3)ncc2c1=O [Cpd 300, 8-indan-5-yl-5-oxo-2-phenylamino-5,8-dihydro-pyrido[2,3-d]pyrimidine-6-carboxylic acid methoxy-amide] |
| 1.6 | CCONC(=O)c1cn(C2CCCCC2)c2nc(Nc3ccc(C4CCNCC4)cc3)ncc2c1=O [Cpd 27, 8-cyclohexyl-5-oxo-2-(4-piperidin-4-yl-phenylamino)-5,8-dihydro-pyrido[2,3-d]pyrimidine-6-carboxylic acid ethoxy-amide] |
| 0.64 | CONC(=O)c1cn(-c2ccc3c(c2)CCC3)c2nc(Nc3ccc(CCN4CCC(O)CC4)cc3)ncc2c1=O [Cpd 238, 2-{4-[2-(4-hydroxy-piperidin-1-yl)-ethyl]-phenylamino}-8-indan-5-yl-5-oxo-5,8-dihydro-pyrido[2,3-d]pyrimidine-6-carboxylic acid methoxy-amide] |
| 0.3 | CCc1ccc(-n2cc(C(=O)NOC)c(=O)c3cnc(Nc4ccc(C5CCN(CCOC)CC5)cc4)nc32)cc1 [Cpd 207, 8-(4-ethyl-phenyl)-2-{4-[1-(2-methoxy-ethyl)-piperidin-4-yl]-phenylamino}-5-oxo-5,8-dihydro-pyrido[2,3-d]pyrimidine-6-carboxylic acid methoxy-amide] |
| 0.83 | CONC(=O)c1cn(-c2ccc3c(c2)CCC3)c2nc(Nc3ccc(C4CCN(S(C)(=O)=O)CC4)cc3)ncc2c1=O [Cpd 76, 8-indan-5-yl-2-[4-(1-methanesulfonyl-piperidin-4-yl)-phenylamino]-5-oxo-5,8-dihydro-pyrido[2,3-d]pyrimidine-6-carboxylic acid methoxy-amide] |
| 0.5 | CONC(=O)c1cn(-c2ccc3c(c2)CCC3)c2nc(Nc3cccc(N4CCN(C)CC4)c3)ncc2c1=O [Cpd 324, 8-indan-5-yl-2-[3-(4-methyl-piperazin-1-yl)-phenylamino]-5-oxo-5,8-dihydro-pyrido[2,3-d]pyrimidine-6-carboxylic acid methoxy-amide] |
| 1.5 | CCc1ccc(-n2cc(C(=O)NOC)c(=O)c3cnc(Nc4ccc(CCN5CC(F)(F)C5)cc4)nc32)cc1 [Cpd 269, 2-{4-[2-(3,3-difluoro-azetidin-1-yl)-ethyl]-phenylamino}-8-(4-ethyl-phenyl)-5-oxo-5,8-dihydro-pyrido[2,3-d]pyrimidine-6-carboxylic acid methoxy-amide] |
| 0.75 | CONC(=O)c1cn(-c2ccc3c(c2)CCC3)c2nc(Nc3ccc(CCN4CCN(C(=O)OC)CC4)cc3)ncc2c1=O [Cpd 150, 4-{2-[4-(8-indan-5-yl-6-methoxycarbamoyl-5-oxo-5,8-dihydro-pyrido[2,3-d]pyrimidin-2-ylamino)-phenyl]-ethyl}-piperazine-1-carboxylic acid methyl ester] |
| 1.5 | CONC(=O)c1cn(-c2ccc3c(c2)CCC3)c2nc(Nc3ccc(CCNC4C5CC6CC(C5)CC4C6)cc3)ncc2c1=O (stereo not drawn) [Cpd 107, 2-{4-[2-(adamantan-2-ylamino)-ethyl]-phenylamino}-8-indan-5-yl-5-oxo-5,8-dihydro-pyrido[2,3-d]pyrimidine-6-carboxylic acid methoxy-amide] |
| 29 | CN1CCC(c2ccc(Nc3ncc4c(=O)c(C(=O)O)cn(-c5ccc6c(c5)CCC6)c4n3)cc2)CC1 [Cpd 222, 8-indan-5-yl-2-[4-(1-methyl-piperidin-4-yl)-phenylamino]-5-oxo-5,8-dihydro-pyrido[2,3-d]pyrimidine-6-carboxylic acid] |
| 0.63 | CONC(=O)c1cn(-c2ccc(C)c(C)c2)c2nc(Nc3ccc(CCN4CCCC4)cc3)ncc2c1=O [Cpd 51, 8-(3,4-dimethyl-phenyl)-5-oxo-2-[4-(2-pyrrolidin-1-yl-ethyl)-phenylamino]-5,8-dihydro-pyrido[2,3-d]pyrimidine-6-carboxylic acid methoxy-amide] |
| 0.94 | CONC(=O)c1cn(-c2ccc3c(c2)CCC3)c2nc(Nc3ccc(CCN4CCN(CC(=O)O)CC4)cc3)ncc2c1=O [Cpd 147, (4-{2-[4-(8-indan-5-yl-6-methoxycarbamoyl-5-oxo-5,8-dihydro-pyrido[2,3-d]pyrimidin-2-ylamino)-phenyl]-ethyl}-piperazin-1-yl)-acetic acid] |
| 2.1 | CONC(=O)c1cn(-c2ccc3c(c2)CCC3)c2nc(Nc3cccc(-n4cncn4)c3)ncc2c1=O [Cpd 174, 8-indan-5-yl-5-oxo-2-(3-[1,2,4]triazol-1-yl-phenylamino)-5,8-dihydro-pyrido[2,3-d]pyrimidine-6-carboxylic acid methoxy-amide] |
| 1.8 | CONC(=O)c1cn(C2CCCCC2)c2nc(Nc3ccc(N4CC(C)NC(C)C4)cc3)ncc2c1=O (stereo not drawn) [Cpd 24, 8-cyclohexyl-2-[4-(3,5-dimethyl-piperazin-1-yl)-phenylamino]-5-oxo-5,8-dihydro-pyrido[2,3-d]pyrimidine-6-carboxylic acid methoxy-amide] |
| 1.5 | CONC(=O)c1cn(C2CCCC2)c2nc(Nc3ccc(CCN4CCN(C)CC4)cc3)ncc2c1=O [Cpd 48, 8-cyclopentyl-2-{4-[2-(4-methyl-piperazin-1-yl)-ethyl]-phenylamino}-5-oxo-5,8-dihydro-pyrido[2,3-d]pyrimidine-6-carboxylic acid methoxy-amide] |
| 0.77 | CONC(=O)c1cn(-c2ccc3c(c2)CCC3)c2nc(Nc3ccc(Cc4ccncc4)cc3)ncc2c1=O [Cpd 173, 8-indan-5-yl-5-oxo-2-(4-pyridin-4-ylmethyl-phenylamino)-5,8-dihydro-pyrido[2,3-d]pyrimidine-6-carboxylic acid methoxy-amide] |
| 4.8 | CONC(=O)c1cn(C2CCCCC2)c2nc(Nc3ccc(C4CCN(C)CC4)cc3)ncc2c1=O [Cpd 140, 8-cyclohexyl-2-[4-(1-methyl-piperidin-4-yl)-phenylamino]-5-oxo-5,8-dihydro-pyrido[2,3-d]pyrimidine-6-carboxylic acid methoxy-amide] |
| 1.2 | CONC(=O)c1cn(-c2ccc3c(c2)CCC3)c2nc(Nc3ccc(CCN4CCS(=O)(=O)CC4)cc3)ncc2c1=O [Cpd 206, 2-{4-[2-(1,1-dioxo-1λ^6-thiomorpholin-4-yl)-ethyl]-phenylamino}-8-indan-5-yl-5-oxo-5,8-dihydro-pyrido[2,3-d]pyrimidine-6-carboxylic acid methoxy-amide] |
